Measured values published in ChEMBL document CHEMBL4033706, “Synthesis of novel acyl selenoureido benzensulfonamides as carbonic anhydrase I, II, VII and IX inhibitors” (Bioorg Med Chem, 2017).
pKi: −log10 of the molar value.

Biological target: Carbonic anhydrase 9 (Homo sapiens, UniProt Q16790)
Description: Inhibition of recombinant human carbonic anhydrase-9 assessed as reduction in CO2 hydration preincubated for 15 mins followed by CO2 addition measured for 10 to 100 secs by stopped-flow assay

Row | SMILES | pKi
1 | Cc1cccc(C(=O)NC(=[Se])Nc2cccc(S(N)(=O)=O)c2)c1 | 7.36
2 | CC(=O)Oc1ccccc1C(=O)NC(=[Se])Nc1ccc(S(N)(=O)=O)cc1 | 7.87
3 | NS(=O)(=O)c1ccc(CCNC(=[Se])NC(=O)c2ccc3c(c2)OCO3)cc1 | 6.98
4 | NS(=O)(=O)c1ccccc1NC(=[Se])NC(=O)c1ccccc1 | 6.55
5 | NS(=O)(=O)c1cccc(NC(=[Se])NC(=O)c2ccccc2)c1 | 6.43
6 | Cc1cccc(C(=O)NC(=[Se])NCCc2ccc(S(N)(=O)=O)cc2)c1 | 6.84
7 | NS(=O)(=O)c1ccc(NC(=[Se])NC(=O)c2ccccc2)cc1 | 8.34
8 | CC(=O)Oc1ccccc1C(=O)NC(=[Se])Nc1cc(S(N)(=O)=O)ccc1O | 7.09
9 | NS(=O)(=O)c1cccc(NC(=[Se])NC(=O)c2ccc(C(F)(F)F)cc2C(F)(F)F)c1 | 5.33
10 | NS(=O)(=O)c1ccc(CCNC(=[Se])NC(=O)c2ccc(-c3ccccc3)cc2)cc1 | 5.31
11 | Cc1cc(C(=O)NC(=[Se])Nc2cc(S(N)(=O)=O)ccc2O)ccc1Br | 8.24
12 | NS(=O)(=O)c1ccc(NC(=[Se])NC(=O)c2cc(Br)cc(OC(F)(F)F)c2)cc1 | 8.46
13 | NS(=O)(=O)c1ccc(CCNC(=[Se])NC(=O)c2ccccc2)cc1 | 8.14
14 | NS(=O)(=O)c1ccc(O)c(NC(=[Se])NC(=O)c2ccc(-c3ccccc3)cc2)c1 | 7.16
15 | CCCCCCCc1ccc(C(=O)NC(=[Se])Nc2ccc(S(N)(=O)=O)cc2)cc1 | 7.60
16 | NS(=O)(=O)c1ccc(NC(=[Se])NC(=O)c2ccc3c(c2)OCO3)cc1 | 6.89
